SMILES | melting point [°C]
FC(F)(F)c1cc(Nc2ncc(-c3ccccc3)o2)cc(C(F)(F)F)c1 [Compound 5-6, N-[3,5-bis(trifluoromethyl)-phenyl]-5-phenyl-1,3-oxazol-2-amine] | 203
Cc1cc(C)cc(Nc2ncc(-c3ccccc3)s2)c1 [Compound 2-3, N-(3,5-dimethylphenyl)-5-phenyl-1,3-thiazol-2-amine] | 144
c1ccc(-c2cnc(Nc3ccc4c(c3)CCC4)o2)cc1 [Compound 5-5, N-(2,3-dihydro-1H-inden-5-yl)-5-phenyl-1,3-oxazol-2-amine] | 152
c1ccc(Nc2ncc(-c3ccccc3)o2)cc1 [Compound 5-4, N,5-diphenyl-1,3-oxazol-2-amine] | 169 to 170
